Data: patent US12435083B2, “Cyclopropyl-(hetero)aryl-substituted ethylsulphonyl-pyridine derivatives” (BOEHRINGER INGELHEIM VETMEDICA GMBH, priority 2021, dated 2025)
Read-outs that look alike come from different tables or passages of the source.

Assays:
Aedes aegypti L1 larvae = assay: Activity against larvae of Aedes aegypti (L1 larvae, 384-well, image-based mortality); details: 48 h at 27° C., 384-well, read-out: EC50 (percentage of mortality, A. aegypti L1 larvae)
Procedure: Example 3: Screening Method to Test Activity of Compounds of Formula (I) Against Larvae of Aedes aegypti
Eight A. aegypti L1 larvae in a total volume of 64 μL water were added to 384-well microplates containing compounds formulated in 100% DMSO. The plates were incubated for 48 h at 27° C. Individual well images were acquired and analyzed using a pipeline to quantitatively assess the amount of larvae biomass accumulating at the bottom of the well. The efficacy of a compound at a given dose is expressed as “percentage of mortality” and determined by comparison to average biomass descriptors of positive and negative control wells containing 1.0 μM Fipronil or DMSO only, respectively. Dose response assay were conducted to determine an EC50 value.

[1] = test system: adult Rhipicephalus sanguineus ticks; assay: Contact activity against adult Rhipicephalus sanguineus (coated vial, mortality at 48 h); details: Rhipicephalus sanguineus; 48 hours post-treatment, coated vial; read-out: EC50 (percentage mortality, adult R. sanguineus, contact)
Procedure: Example 5: Screening Method to Test Contact Activity of Compounds of Formula (I) Against Adult Rhipicephalus sanguineus
Compounds of formula (I) formulated in 100% DMSO were diluted in a solution containing acetone and Triton X-100 (0.02%). The resulting formulation was used to coat the inner walls of glass scintillation vials and the filter paper covering the cap of the vial. Once dried, ten adult R. sanguineus ticks were added to the vials. The vials were incubated at 24° C., 95% relative humidity, and 12 hours of light/12 hours of dark until evaluation. Ticks were visually evaluated for mortality at 48 hours post-treatment. Compound efficacy at a given dose is expressed as percentage mortality. A dose response series was implemented to determine EC50 values.
(§1) The four structurally closest prior art compounds (A), (B), (C) and (D) specifically excluded from the scope of formula (I) were characterized vis-a-vis selected compounds of formula (I) with regard to their potency in in vitro screening assays against fleas (Ctenocehalides felis) and ticks (Rhipicephalus sanguineus).
(§2) However, as explained above, spectrum of action against this range of species (i.e. fleas and ticks) is a desirable property of ectoparasiticides for veterinary use. In the following table 1 comparative experimental data of the in vitro assays are shown regarding flea membrane feeding (ingestion, blood feeding) activity against Ctenocephalides felis and contact activity against Rhipicephalus sanguineus.

[2] = test system: adult Ctenocephalides felis fleas; assay: Contact activity against adult Ctenocephalides felis (treated surface, motility by machine vision, 24 h); details: treated surface, 24h, read-out: EC80 (% motility reduction, adult C. felis, contact)
Description: Example 7: Screening Method to Test Contact Activity of Compounds of Formula (I) Against Adult Ctenocephalides felis

Plutella xylostella = assay: Insecticidal test on Plutella xylostella (Chinese cabbage seedling dip); details: 144 h, 500 ppm, seedling dip, 6 days after dip treatment, read-out: activity level (corrected mortality rate), Plutella xylostella
Procedure: Example 12: Insecticidal Test on Plutella xylostella
(§3) The compounds of formula (I) of the present invention or salts thereof were separately dispersed in water and diluted to 500 ppm. Ten adults of Plutella xylostella were released onto Chinese cabbage seedlings and allowed to lay eggs thereon. 2 days after the release of the adults, the seedling was dipped in the dispersion for about 30 seconds. After air dried, the seedling was kept in a room at 25° C. 6 days after the dip treatment, the numbers of the dead and alive insects were counted. The corrected mortality rate was calculated according to the following formula and the insecticidal activity was evaluated according to the following criteria. Corrected mortality rate (%)=100×(Survival rate in an untreated plot−Survival rate in a treated plot)/Survival rate in an untreated plot • A: the corrected mortality rate is 100% • B: the corrected mortality rate is 90 to 99% • C: the corrected mortality rate is 80 to 89% • D: the corrected mortality rate is 50 to 79%

[3] = test system: Laodelphax striatellus 3rd-instar nymphs; assay: Insecticidal test on Laodelphax striatellus (rice seedling dip); details: 192 h, 500 ppm, seedling dip, 8 days after inoculation, read-out: activity level (corrected mortality rate), Laodelphax striatellus
Procedure: Example 13: Insecticidal Test on Laodelphax striatellus
as §3, with “Rice plant seedlings” for “Ten adults of Plutella xylostella”, “were” for “were released onto Chinese cabbage seedlings and allowed to lay eggs thereon. 2 days after the release of the adults, the seedling was”, “seedlings were put into a separate glass test tube and inoculated with ten 3rd-instar nymphs of Laodelphax striatellus and then the glass test tube” for “seedling”, “8” for “6”, “inoculation,” for “dip treatment,”

Myzus persicae = assay: Insecticidal test on Myzus persicae (foliar application on potted Chinese cabbage); details: 144 h, read-out: control efficacy level (control rate), Myzus persicae
Description: Example 14: Insecticidal Test on Myzus persicae
The compounds of formula (I) of the present invention or salts thereof were separately dispersed in water and diluted to 500 ppm. Chinese cabbage plants were planted in plastic pots (diameter: 8 cm, height: 8 cm). Aphids (Myzus persicae) were propagated on the plants and then the number of surviving aphids was counted. The dispersion was applied to the foliage of the potted plants. After the plants were air dried, these were kept in a greenhouse. 6 days after the application, the number of the alive insects was counted on the plants. The control rate was calculated according to the following formula and the control efficacy was evaluated according to the following criteria. Control rate (%)=100−{(T×Ca)/(Ta×C)}×100 • Ta: the number of alive insects before the foliar application in a treated plot • T: the number of alive insects after the foliar application in a treated plot • Ca: the number of alive insects before the foliar application in an untreated plot • C: the number of alive insects after the foliar application in an untreated plot • A: the control rate is 100% • B: the control rate is 90 to 99% • C: the control rate is 80 to 89% • D: the control rate is 50 to 79%

[4] = test system: adult Ctenocephalides felis fleas; assay: Ingestion activity (flea membrane feeding, blood feeding) against adult Ctenocephalides felis; details: Ctenocephalides felis; bovine blood, 24h post treatment; read-out: EC80 (% motility reduction, adult C. felis, ingestion via membrane feeding)
Description: Example 6: Screening Method to Test Ingestion Activity of Compounds of Formula (I) Against Adult Ctenocephalides felis
as §1
It is important to note that compounds that show better activity versus ticks are more desirable in the animal health field, as ticks are more difficult to control than fleas. Noteworthy, in particular with regard to fleas the illustrated comparative data are based on a flea membrane feeding (ingestion, blood feeding) assay. Data from this assay are more relevant for compounds intended to be delivered systemically to an animal via oral or injectable routes. Membrane feeding assays differ to primary screening laboratory contact assays in that the latter only measure the effect of the direct contact of selected compounds on the parasite, such as the flea or the tick. The information derived from laboratory contact assays is strictly limited to the ability of the compound to be absorbed through the parasite surface and to reach its molecular target, and no information can be gleaned from these contact assays as to whether the compound would also be active when presented orally to the ectoparasite itself in a blood meal, such as with the membrane feeding assay, and certainly not when administered orally to an animal host (e.g. “in vivo”) with subsequent exposure to the ectoparasite.
as §2

[5] = test system: Spodoptera litura 2nd-instar larvae; assay: Insecticidal test on Spodoptera litura (cabbage leaf dip); details: foliar, 192 h, 8 days after inoculation, read-out: activity level (corrected mortality rate), Spodoptera litura
Procedure: Example 11: Insecticidal Test on Spodoptera litura
as §3, with “Cabbage leaves” for “Ten adults of Plutella xylostella”, “were” for “were released onto Chinese cabbage seedlings and allowed to lay eggs thereon. 2 days after the release of the adults, the seedling was”, “leaves were placed in a plastic Petri dish with a diameter of 9 cm and inoculated with ten 2nd-instar larvae of Spodoptera litura, after which the dish” for “seedling”, “closed and then allowed to stand” for “kept”, “8” for “6”, “inoculation,” for “dip treatment,”

[6] = 500 ppm, foliar application, 6 days after application

SMILES | EC50 (Aedes aegypti L1 larvae) [nM] | EC50 [1] [µM] | EC80 [2] [µM] | mortality at 500 ppm (Plutella xylostella) [%] | mortality at 500 ppm [3] [%] | pest or weed control at 500 ppm (Myzus persicae; [6]) [%] | EC80 [4] [µM] | mortality at 500 ppm [5] [%] | pest or weed control at 500 ppm (Myzus persicae; foliar) [%]
CCS(=O)(=O)c1cc(-c2ccc(C3CC3)cc2)cnc1-n1nc2cc(SC(F)(F)F)ncc2c1Cl [Compound 27, 2-[3-chloro-6-[(trifluoromethyl)sulfanyl]pyrazolo[4,3-c]pyridin-2-yl]-5-(4-cyclopropylphenyl)-3-(ethanesulfonyl)pyridine] | < 40 | < 10 | 1 to 10 | – | – | – | – | – | –
CCS(=O)(=O)c1cc(-c2ccc(C3CC3)cc2)cnc1-n1cc2cnc(S(=O)(=O)C(F)(F)F)cc2n1 [Compound 30, 5-(4-cyclopropylphenyl)-3-(ethanesulfonyl)-2-[6-trifluoromethanesulfonylpyrazolo[4,3-c]pyridin-2-yl]pyridine] | < 40 | – | 1 to 10 | – | – | – | – | – | –
CCS(=O)(=O)c1cc(-c2ccc(C3CC3)cc2)cnc1-c1ccc(OCC(F)(F)C(F)(F)F)cn1 [Compound 52, 5-(4-cyclopropylphenyl)-3-(ethanesulfonyl)-5′-(2,2,3,3,3-pentafluoropropoxy)-2,2′-bipyridine] | < 40 | < 10 | – | 100 | 100 | 100 | – | – | –
CCS(=O)(=O)c1cc(-c2ccnc(C3CC3)c2)cnc1-c1nc2cc(C(F)(F)C(F)(F)F)nnc2n1C [Compound 60, 2′-cyclopropyl-5-(ethanesulfonyl)-6-[7-methyl-3-(1,1,2,2,2-pentafluoroethyl)imidazo[4,5-c]pyridazin-6-yl]-3,4′-bipyridine] | < 40 | 10 to 100 | 1 to 10 | 100 | 100 | – | – | – | –
CCS(=O)(=O)c1cc(-c2ccc(C3CC3)cc2)cnc1-c1nc2cc(S(=O)(=O)C(F)(F)F)cnc2n1C [Compound 82, 5-(4-cyclopropylphenyl)-3-(ethanesulfonyl)-2-[3-methyl-6-trifluoromethanesulfonylimidazo[4,5-b]pyridin-2-yl]pyridine] | < 40 | – | 1 to 10 | 100 | 100 | – | – | – | –
CCS(=O)(=O)c1cc(-c2ccc(C3CC3)cc2)cnc1-c1nc2cc(SC(F)(F)F)cnc2n1C [Compound 83, 5-(4-cyclopropylphenyl)-3-(ethanesulfonyl)-2-[3-methyl-6-[(trifluoromethyl)sulfanyl]imidazo[4,5-b]pyridin-2-yl]pyridine] | < 40 | – | 1 to 10 | 100 | 100 | 100 | – | – | –
CCS(=O)(=O)c1cc(-c2ccc(C3CC3)cc2)cnc1-c1cc2n(CC(F)(F)F)cc(C(F)(F)F)cc-2n1 [Compound 107, 5-(4-cyclopropylphenyl)-3-(ethanesulfonyl)-2-[4-(2,2,2-trifluoroethyl)-6-(trifluoromethyl)pyrrolo[3,2-b]pyridin-2-yl]pyridine] | – | – | 1 to 10 | – | – | – | 1 to 10 | 100 | –
CCS(=O)(=O)c1cc(-c2ccc(C3CC3)nc2)cnc1-c1ccc(OCC(F)(F)C(F)(F)F)cn1 [Compound 123, 6′-cyclopropyl-5-(ethanesulfonyl)-6-[5-(2,2,3,3,3-pentafluoropropoxy)pyridin-2-yl]-3,3′-bipyridine] | – | – | – | 100 | 100 | – | – | 100 | 100
CCS(=O)(=O)c1cc(-c2cccc(C3(C(F)(F)F)CC3)n2)cnc1-c1cc2n(CC(F)F)cc(C(F)(F)F)cc-2n1 [Compound 171, 6′-[4-(2,2-difluoroethyl)-6-(trifluoromethyl)pyrrolo[3,2-b]pyridin-2-yl]-5′-(ethanesulfonyl)-6-[I-(trifluoromethyl)cyclopropyl]-2,3′-bipyridine] | – | – | 1 to 10 | 100 | – | – | 1 to 10 | 100 | –
CCS(=O)(=O)c1cc(-c2ccc(C3(C(F)(F)F)CC3)cc2)cnc1-c1nc2cc3c(cc2n1C)OC(F)(F)O3 [compound 129] | – | – | 1 to 10 | 100 | 100 | – | 1 to 10 | 100 | –
CCS(=O)(=O)c1cc(-c2nccc(C3CC3)n2)cnc1-c1nc2cc(C(F)(F)C(F)(F)F)nnc2n1C [compound 143] | – | – | < 1 | 100 | 100 | – | < 1 | 100 | –
